Earlier results, collected in US6858233B2, “Simmondsin processing methods and products” (International Flora Technologies, Ltd., priority 2001, dated 2005).

Columns and labels:
[1] = system: animals; details: reported in the literature
[2] = system: rats; details: relative to simmondsin, Cokelaere et al. 1996

Compound	ability to cause food intake reduction [1]	efficacy compared to simmondsin (food intake reduction) [2]
N#C/C=C1\[C@H](O[C@@H]2O[C@H](CO)[C@@H](O)[C@H](O)[C@H]2O)C[C@H](O)[C@H](O)[C@H]1O [didemethyl simmondsin]	thought not to have such efficacy	–
CO[C@H]1[C@@H](OC)C[C@@H](O[C@@H]2O[C@H](CO)[C@@H](O)[C@H](O)[C@H]2O)/C(=C\C#N)[C@@H]1O [simmondsin]	significant food intake reduction	–
simmondsin ferulate	significant food intake reduction	about 67%
